Read-outs that look alike come from different tables or passages of the source.
Assays:
HUVECs = experiment: High-content imaging cytotoxicity in HUVECs, 24 h; type: cell-based, human; settings: Homo sapiens, HUVEC, 24 h, HUVECs; for viability at 0.01 µM / activity at 0.01 µM: concentration 0.01 µM; for viability at 0.01 µM / activity at 0.01 µM / viability at 0.1 µM / activity at 0.1 µM / viability at 1 µM / activity at 1 µM / viability at 10 µM / activity at 10 µM / viability at 100 µM / activity at 100 µM: 0.00 µM = 100.00; for viability at 0.1 µM / activity at 0.1 µM: concentration 0.10 µM; for viability at 1 µM / activity at 1 µM: concentration 1.00 µM; for viability at 10 µM / activity at 10 µM: concentration 10.00 µM; for viability at 100 µM / activity at 100 µM: concentration 100.00 µM; for minimal effective concentration: MAX 100.00
Summary of the method: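 Point-of-departure values derive from four-parameter logistic fits of vehicle-normalized imaging phenotypes (Hoechst 33342, MitoTracker Orange, calcein AM). The fits follow 24 h exposure of HUVEC monolayers at 37°C and 5% CO2, with a top tested concentration of 100μM.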

[1] = test system: iCell cardiomyocytes (human iPSC-derived cardiomyocytes); experiment: High-content imaging of cytotoxicity and mitochondrial integrity in iPSC-CMs; type: cell-based; settings: Homo sapiens, Cardiomyocyte; for viability at 0.01 µM / activity at 0.01 µM / viability at 0.1 µM / activity at 0.1 µM / viability at 1 µM / activity at 1 µM / viability at 10 µM / activity at 10 µM / viability at 100 µM / activity at 100 µM: 0.00 µM = 100.00; for viability at 0.1 µM / activity at 0.1 µM: 0.10 µM
Summary of the method: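 Readouts from high-content images were normalized to vehicle controls containing 0.5% vol/vol DMSO. They were fit to a four-parameter logistic model in R. Points of departure were set using a cutoff of one standard deviation across vehicle control means. Where no concentration–response was seen, the top tested concentration of 100μM was assigned as the no observable adverse effect level.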

[2] = 24 hr, read-out: huvec.cyto.24hr
[3] = 24 hr, read-out: huvec.mito.24hr
[4] = 24 hr, read-out: huvec.mitoint.24hr
[5] = 24 hr, read-out: huvec.nma.24hr
[6] = 24 hrs, read-out: huvec.tc.24hrs
[7] = 1.5 h, 90min, read-out: cm.cam.90min
[8] = 1.5 h, 90min, read-out: cm.mii.90min
[9] = 1.5 h, 90min, read-out: cm.mito.90min
[10] = 1.5 h, 90min, read-out: cm.tc.90min
[11] = 24 h, 24hrs, read-out: cm.cam.24hrs
[12] = 24 h, 24hrs, read-out: cm.mii.24hrs
[13] = 24 h, 24hrs, read-out: cm.mito.24hrs
[14] = 24 h, 24hrs, read-out: cm.tc.24hrs

`COc1cc(Cl)c(-c2cc(Cl)ccc2Cl)cc1Cl` [4-OMe PCB52] was tested, and the viability at 0.01 µM (HUVECs; [2]) was 105%, the activity at 0.01 µM (HUVECs; [3]) was 105% and the activity at 0.01 µM (HUVECs; [4]) was 107%. It also gave an activity at 0.01 µM (HUVECs; [5]) of 98.6%, a viability at 0.1 µM (HUVECs; [2]) of 102% and an activity at 0.1 µM (HUVECs; [3]) of 102%. It also gave an activity at 0.1 µM (HUVECs; [4]) of 114%, an activity at 0.1 µM (HUVECs; [5]) of 99.1% and a viability at 1 µM (HUVECs; [2]) of 85.9%. It also gave an activity at 1 µM (HUVECs; [3]) of 85.8%, an activity at 1 µM (HUVECs; [4]) of 113% and an activity at 1 µM (HUVECs; [5]) of 104%. For the same compound, the viability at 10 µM (HUVECs; [2]) was 57.8%, the activity at 10 µM (HUVECs; [3]) was 31.1% and the activity at 10 µM (HUVECs; [4]) was 11.1%. It also gave an activity at 10 µM (HUVECs; [5]) of 54.2%, a viability at 100 µM (HUVECs; [2]) of 60% and an activity at 100 µM (HUVECs; [3]) of 23%. It also gave an activity at 100 µM (HUVECs; [4]) of 13.4%, an activity at 100 µM (HUVECs; [5]) of 63.6% and a minimal effective concentration (HUVECs; 24 hr, read-out: huvec.cyto.24hr POD) of 0.78 µM. For the same compound, the minimal effective concentration (HUVECs; 24 hr, read-out: huvec.mito.24hr POD) was 0.55 µM, the minimal effective concentration (HUVECs; 24 hr, read-out: huvec.mitoint.24hr POD) was 2.69 µM and the minimal effective concentration (HUVECs; 24 hr, read-out: huvec.nma.24hr POD) was 2.36 µM. For the same compound, the viability at 0.01 µM (HUVECs; [6]) was 105%, the viability at 0.1 µM (HUVECs; [6]) was 102% and the viability at 1 µM (HUVECs; [6]) was 85.9%. It also gave a viability at 10 µM (HUVECs; [6]) of 57.9%, a viability at 100 µM (HUVECs; [6]) of 60% and a minimal effective concentration (HUVECs; 24 hrs, read-out: huvec.tc.24hrs POD) of 0.78 µM. The viability at 0.01 µM [1, 7] was 94.3%, the activity at 0.01 µM [1, 8] was 101% and the activity at 0.01 µM [1, 9] was 94.1%. For the same compound, the viability at 0.01 µM [1, 10] was 94.2%, the viability at 0.1 µM [1, 7] was 98.7% and the activity at 0.1 µM [1, 8] was 90.9%. The activity at 0.1 µM [1, 9] was 98.7%, the viability at 0.1 µM [1, 10] was 98.8% and the viability at 1 µM [1, 7] was 101%. The activity at 1 µM [1, 8] was 95.2%, the activity at 1 µM [1, 9] was 101% and the viability at 1 µM [1, 10] was 101%. It also gave a viability at 10 µM [1, 7] of 100%, an activity at 10 µM [1, 8] of 108% and an activity at 10 µM [1, 9] of 99.8%. It also gave a viability at 10 µM [1, 10] of 100%, a viability at 100 µM [1, 7] of 0.37% and an activity at 100 µM [1, 8] of 69.6%. The activity at 100 µM [1, 9] was 0.37%, the viability at 100 µM [1, 10] was 0.46% and the minimal effective concentration ([1]; 1.5 h, 90min, read-out: cm.cam.90min POD) was 27.6 µM. For the same compound, the minimal effective concentration ([1]; 1.5 h, 90min, read-out: cm.mii.90min POD) was 57.2 µM, the minimal effective concentration ([1]; 1.5 h, 90min, read-out: cm.mito.90min POD) was 18.6 µM and the minimal effective concentration ([1]; 1.5 h, 90min, read-out: cm.tc.90min POD) was 33 µM. It also gave a viability at 0.01 µM [1, 11] of 97.9%, an activity at 0.01 µM [1, 12] of 95.9% and an activity at 0.01 µM [1, 13] of 98.7%. For the same compound, the viability at 0.01 µM [1, 14] was 98.3%, the viability at 0.1 µM [1, 11] was 106% and the activity at 0.1 µM [1, 12] was 91.2%. For the same compound, the activity at 0.1 µM [1, 13] was 107%, the viability at 0.1 µM [1, 14] was 106% and the viability at 1 µM [1, 11] was 102%. It also gave an activity at 1 µM [1, 12] of 99.8%, an activity at 1 µM [1, 13] of 101% and a viability at 1 µM [1, 14] of 102%. It also gave a viability at 10 µM [1, 11] of 102%, an activity at 10 µM [1, 12] of 78.7% and an activity at 10 µM [1, 13] of 103%. The viability at 10 µM [1, 14] was 102%, the viability at 100 µM [1, 11] was 4.05% and the activity at 100 µM [1, 12] was 55.8%. It also gave an activity at 100 µM [1, 13] of 2.86%, a viability at 100 µM [1, 14] of 4.37% and a minimal effective concentration ([1]; 24 h, read-out: cm.cam.24hrs POD) of 33 µM. The minimal effective concentration ([1]; 24 h, read-out: cm.mii.24hrs POD) was 5.58 µM, the minimal effective concentration ([1]; 24 h, read-out: cm.mito.24hrs POD) was 35.8 µM and the minimal effective concentration ([1]; 24 h, read-out: cm.tc.24hrs POD) was 35 µM.
